Experiments:
Assay type in all cases: in vivo, Male Wistar rats
TBI-induced rats [1] = assay: Rotarod test after weight-drop TBI; settings: TBI group vs control, JM-20 and TBI+JM-20 groups, p<0.05; FIG. 1
Experimental: (§1) Male Wistar rats (200-250 g), with an average age of 60 days were used, conditioned in boxes with food and water at will. Procedures were performed pursuant to the rules of the Animal Ethics and Welfare Committee UFSM (9426190418).
(§2) TBI was induced through the weight-drop model (MANNIX, R. et al. Chronic Gliosis and Behavioral Deficits in Mice Following Repetitive Mild Traumatic Brain Injury. Journal of Neurosurgery. 2014) A 54 g weight was used released from a 100 cm height freely falling on the animals head. Animals were suspended on aluminum foil, with small cuts to ensure it would break with the impact of the weight allowing for the sudden acceleration of the movement, thus tearing the aluminum foil and falling over a sponge. TBI-induced animals were previously anesthetized with 2% isoflurane. In addition, topical lidocaine was applied to the animals' head to minimize posttraumatic pain (MYCHASIUK, R. et al. A Novel Model of Mild Traumatic Brain Injury for Juvenile Rats. Journal of Visualized Experiments. 2014)
Animals were trained for 5 minutes before the TBI so they could adapt to the apparatus. The testing session comprised 5 trials and concluded when animals fell off the rotor (3.7 cm diameter, velocity 25-30 rpm) or after the cutoff time, i.e. 300 s. (Whishaw et al., 2003). The first fall latency was analyzed.

TBI-induced rats [2] = assay: Beam-walking test after weight-drop TBI; settings: TBI group vs control and JM-20 (alone) groups, p<0.05; FIG. 5
Experimental: as §1
as §2, with “In addition, topical lidocaine was applied to the animals' head to minimize posttraumatic pain (MYCHASIUK, R. et al. A Novel Model of Mild Traumatic Brain Injury for Juvenile Rats. Journal of Visualized Experiments. 2014)” left out
The beam-walking test (HAUSSER, N. et al. Detecting Behavioral Deficits in Rats After Traumatic Brain Injury. J. Vis. Exp. (131), e56044, doi:10.3791/56044. 2018.) consists in animals walking on a hanging wooden beam (2.5 cm wide and 100 cm long) to reach a black wooden box placed at the end of the apparatus. […] Three attempts were analyzed. […] The day of the test, the times of each attempt were recorded and their values were averaged.

TBI = assay: Overall assessment in animal models after a TBI; settings: motor performance; cerebral edema; astrocyte reactivity; microglial activation; pro-survival pathway activation
Experimental: as §1, §2

TBI-induced rats [3] = assay: Open field test after weight-drop TBI; settings: TBI group vs control and TBI+JM-20 group, p<0.05; FIG. 3
Experimental: as §1, §2
Animals were placed in the central area of an open field (56 cm diameter) that had its surface divided into equal parts. The duration of the test was 300 seconds. The number of times animals walked around the quadrants, the number of their exploratory responses (rearings) and their immobility time were analyzed.

GFAP = assay: Western blotting of GFAP in brain tissue; settings: cortex and hippocampus; all groups; FIGS. 11 and 12
Experimental: as §1
(§3) TBI was induced through the weight-drop model (MANNIX, R. et al. Chronic Gliosis and Behavioral Deficits in Mice Following Repetitive Mild Traumatic Brain Injury. Journal of Neurosurgery. 2014) A 54 g weight was used released from a 100 cm height freely falling on the animals head. […]
(§4) The Western blot test was performed according to Gerbatin et al (2017) with some adjustments (GERBATIN, R. D. R. et al. Guanosine Protects Against Traumatic Brain Injury-Induced Functional Impairments and Neuronal Loss by Modulating Excitotoxicity, Mitochondrial Dysfunction, and Inflammation. Molecular Neurobiology. 54(10):7585-7596. 2017.). […] The protein concentration of each sample was determined by the bicinchonininc acid protein assay (Thermo Fisher Scientific). […]
(§5) The mouse anti-β-actin antibody (1: 10,000, Santa Cruz Biotechnology, Santa Cruz, Calif., EE. UU.) was dyed as an additional control to the protein load. […] Then the bands were quantified using the Image Lab software (Bio-Rad).

iba-1 = assay: Western blotting of iba-1 in brain tissue; settings: TBI group vs control, JM-20 and TBI+JM-20, p<0.01, FIG. 9
Experimental: as §1, §3, §4, §5

TBI-induced rats [4] = assay: Cerebral edema (brain water content, wet-dry method); settings: 24 h after TBI; TBI group vs control and TBI+JM-20 groups, p<0.05; FIG. 6
Experimental: as §1
as §2, with “In addition, topical lidocaine was applied to the animals' head to minimize posttraumatic pain (MYCHASIUK, R. et al. A Novel Model of Mild Traumatic Brain Injury for Juvenile Rats. Journal of Visualized Experiments. 2014)” left out
The cerebral edema was determined measuring the water content of the brain using the wet-dry method described by Chen et al (2014) (CHEN, W. et al. Neuroprotective effect of allicin against traumatic brain injury via Akt/endothelial nitric oxide synthase pathway-mediated anti-inflammatory and anti-oxidative activities. Neurochemistry International. 68:28-37. 2014) Twenty-four hours after the TBI, the animals were sacrificed and their brains were rapidly removed and weighed to determine their wet weight. […] The water content of the brain was calculated using the following formula: […]

p-Akt = assay: Western blotting of p-Akt in brain tissue; settings: TBI group vs control and TBI+JM-20 groups, p<0.05, FIG. 8
Experimental: as §1, §3, §4, §5

For CCOC(=O)C1=C(C)NC2=C(C=Nc3ccccc3N2)C1c1ccccc1[N+](=O)[O-] (centres unmarked) [JM-20, 3-ethoxycarbonyl-2-methyl-4-(2-nitrophenyl)-4,11-dihydro-1H-pyridol[2,3-b][1,5]benzodiazepine], the “first fall latency time on the rotarod test” value (TBI-induced rats [1]) was “animals who suffered a TBI showed a reduction of the first fall latency time on the rotarod test in contrast with the other groups”, the “time to complete the beam-walk test” value (TBI-induced rats [2]) was “rats in the TBI group took longer to complete the course than the control and JM-20 groups” and the “effect on TBI adverse effects (behavioral, morphological and biochemical changes)” value (TBI) was “effective in reducing and, in some cases, reversing TBI adverse effects”. For the same compound, the “number of rearings during the open field test” value (TBI-induced rats [3]) was “a higher number of rearings was observed in comparison with the control and the TBI+JM-20 group”, the GFAP expression (GFAP) was “showed no changes in any of the groups” and the “iba-1 expression in cerebral cortex” value (iba-1) was “increased in TBI groups, both in the cerebral cortex in comparison with all the groups”. For the same compound, the brain water content (TBI-induced rats [4]) was “increased in the TBI group in contrast with the control and TBI +JM-20 groups” and the “p-Akt expression in hippocampus” value (p-Akt) was “decreased in TBI groups”.

— US20220370473A1, “USE OF A BENZODIAZEPINE DERIVATIVE AND METHOD OF TREATMENT OF TRAUMATIC BRAIN INJURY” (CENTRO DE INVESTIGACION Y […] MEDICAMENTOS (CIDEM), priority 2019, published 2022)
